The subject of one series is HEK-293T cells. Briefly: Cell viability assay (CCK-8, 72 h). The settings on record: Homo sapiens, read-out: HEK-293T IC50 (growth inhibition).
The test system of another series is SNU-5 cells. Briefly: Cell viability assay (CCK-8, 72 h). The conditions noted are these: Homo sapiens, SNU-5, 72 h, read-out: SNU-5 IC50 (growth inhibition).
A further series has as its system SK-MEL-28 cells. Briefly: Cell viability assay (CCK-8, 72 h). The conditions noted are these: Homo sapiens, SK-MEL-28, 72 h, read-out: SK-MEL-28 IC50 (growth inhibition).
The target in series [1] is ALK (kinase domain, 1068–1410) (Homo sapiens, UniProt Q9UM73). Briefly: Enzymatic inhibition assay, ATP hydrolysis (Kinase-Glo luminescent kit). Background: In Kinase-Glo more light means more ATP remaining.
The nature of series [2]: Pharmacokinetic analysis of crizotinib glucosides after oral gavage, plasma LC/MS/MS. Type of series: in vivo, male C57 mice.
The next series concerns cancer cells. Details: method as in PMID 25184545. The conditions noted are these: compared with deglycoBLM (6); cited from earlier work.
Setting [3] is: mouse, plasma, oral GA95 91.6 mg/kg, male C57 mice, analyte Glycolcrizotinib.

One may read the IC50 as the midpoint of a concentration-inhibition curve. A word on the half-life: it is the time needed for the level to fall by half in the phase considered.

Chain of ALK (kinase domain, 1068–1410) (Q9UM73 1068-1410): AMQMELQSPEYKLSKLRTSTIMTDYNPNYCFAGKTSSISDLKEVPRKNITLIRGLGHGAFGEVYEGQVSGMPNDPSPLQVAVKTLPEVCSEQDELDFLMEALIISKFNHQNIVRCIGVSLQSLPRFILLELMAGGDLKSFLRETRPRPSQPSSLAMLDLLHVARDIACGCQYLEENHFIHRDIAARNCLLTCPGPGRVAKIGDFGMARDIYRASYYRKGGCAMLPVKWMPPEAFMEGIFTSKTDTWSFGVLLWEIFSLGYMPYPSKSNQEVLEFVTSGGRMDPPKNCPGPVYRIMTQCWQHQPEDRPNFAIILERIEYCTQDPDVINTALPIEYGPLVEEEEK

As to `C[C@@H](Oc1cc(-c2cnn(C3CCNCC3)c2)cnc1N)c1c(Cl)ccc(F)c1Cl` [Crizotinib, reference compound], the IC50 in the series with HEK-293T cells was 6 µM; in the series with SNU-5 cells it was 0.015 µM; in the series with SK-MEL-28 cells it was 6 µM.
Regarding `CC(=O)OC[C@H]1O[C@@H](OC(=O)N2CCC(n3cc(-c4cnc(N)c(O[C@H](C)c5c(Cl)ccc(F)c5Cl)c4)cn3)CC2)[C@H](OC(C)=O)[C@@H](OC(C)=O)[C@@H]1OC(C)=O` [GA89], the IC50 in the series with HEK-293T cells came to 5 µM; in the series on SNU-5 cells it was 0.045 µM; in series [1], 1.1 µM; in the series with SK-MEL-28 cells it was 5 µM.
Consider `C[C@@H](Oc1cc(-c2cnn(C3CCN(C(=O)O[C@@H]4O[C@H](CO)[C@@H](O)[C@H](O)[C@H]4O)CC3)c2)cnc1N)c1c(Cl)ccc(F)c1Cl` [GA95], for which, in the series with HEK-293T cells, the IC50 was 25 µM. Moreover, the half-life in series [2] (mouse, plasma, oral GA95 91.6 mg/kg, male C57 mice, analyte GA95) is 43.6 min. In addition, in series [2] (setting [3]), the AUC(0-inf) turned out to be 42.6 ng·h/mL, the AUC(0-t) came to 37.6 ng·h/mL, the Cmax was 33.6 ng/mL and the MRT is 64.8 min. Further, the Tmax in series [2] (setting [3]) came out at 15 min. Also, the “plasma concentration of crizotinib after oral application of the glucoside” value in series [2] (oral GA95, male C57 mice, compared with the crizotinib group) is “quickly increased to the similar level as the crizotinib group”. Also, the IC50 in the series on SNU-5 cells was found to be 0.022 µM. Besides, the IC50 in series [1] was 0.3 µM. Further, in the series on SK-MEL-28 cells, the IC50 turned out to be 25 µM.
For `Cc1c(N)nc([C@H](CC(N)=O)NC[C@H](N)C(N)=O)nc1C(=O)N[C@H](C(=O)N[C@H](C)[C@@H](O)[C@H](C)C(=O)N[C@H](C(=O)NCCc1nc(-c2nc(C(=O)NCCCNCCCCNC(=O)OC3O[C@@H](CO)[C@@H](O)[C@H](O)[C@@H]3O[C@H]3O[C@H](CO)[C@@H](O)[C@H](OC(N)=O)[C@@H]3O)cs2)cs1)[C@@H](C)O)[C@@H](O)c1c[nH]cn1` (stereo partly shown) [compound 5], the cytotoxic activity entry in the series with cancer cells was “significantly more potent cytotoxic activity than deglycoBLM (6)”.
